Measured values published in PMC8116058, “De novo macrocyclic peptides dissect energy coupling of a heterodimeric ABC transporter by multimode allosteric inhibition” (eLife, 2021).

What was measured:
wild-type TmrAB = experiment: Nucleotide occlusion, wild-type TmrAB; assay type: biochemical, Thermus thermophilus; conditions: TmrAB 2 µM; CP^F 4 µM or orthovanadate 1 mM; ATP 1 mM traced with [α32P]-ATP; 5 min 45°C; normalized to vanadate-trapped state
Method: Figure 5. […] (A, B) CP6^F (A) or CP13^F (B, 50 nM each) were incubated with increasing concentrations of detergent-solubilized inward-facing TmrAB (in the absence of Mg-ATP) or outward-facing TmrA^EQB, which was trapped with Mg-ATP (1 mM) for 5 min at 45°C as described ([Hofmann et al., 2019]; [Stefan et al., 2020]). Immediately after, the fluorescence anisotropy was assayed at λex/em = 485/520 nm. The difference in fluorescence polarization was normalized to free and fully bound CP^F. Data were fitted by a one-site binding model. […] TmrAB (2 µM each) were mixed with CP^Fs (4 µM), ATP (1 mM, traced with [α^32P]-ATP), and MgCl2 (5 mM) for 5 min at 4°C or 45°C. Cold ATP (10 mM) was added, and freely exchangeable nucleotides were removed by rapid gel filtration. Occluded nucleotides were analyzed by thin layer chromatography and autoradiography. Representative radiograms for independent triplicates are shown. (D) Stably occluded nucleotides, [α^32P]-ATP and [α^32P]-ADP, were quantified by autoradiography. Data were normalized to the vanadate-trapped state. In (A, B, D), mean values ± SD (n = 3) are shown. Figure 5—source data 1. Source Data for Figure 5. Figure 5—figure supplement 1. […] (A) CP^Fs (50 nM each) were incubated with increasing concentrations of detergent-solubilized IF TmrAB in the inward-facing (IF) conformation (absence of Mg-ATP) or TmrA^EQB populated in the outward-facing (OF) conformation, which was trapped in the OF conformation by Mg-ATP (1 mM) after 5 min incubation at 45°C. The difference in fluorescence polarization was normalized to unbound (0%) and 100% bound CP^F. Data were fitted by a one-site binding model. Fluorescence anisotropy was recorded at λex/em = 485/520 nm. […] TmrA^EQB (2 µM) were incubated in the absence and presence of CP^Fs (4 µM each), ATP (1 mM, traced with [α^32P]-ATP), and MgCl2 (5 mM) for 5 min at 4°C or 45°C. Cold ATP (10 mM) was added, and free nucleotides were removed by rapid gel filtration. Occluded nucleotides were analyzed by thin layer chromatography and autoradiography. Representative radiograms for independent triplicates are shown. […] Figure 5—figure supplement 1—source data 1.
We also examined the impact of CP^Fs on the IF-to-OF transition of wild-type TmrAB induced by ATP binding through nucleotide occlusion (stable trapping) as the readout. We induced the IF-to-OF switch with radiotraced [α^32P]-ATP for 5 min at 45°C in the presence and absence of CPs and removed unbound nucleotides by rapid gel filtration. Subsequently, the occluded nucleotides were identified and quantified by thin layer chromatography and autoradiography (Figure 5C, D).
Detergent-solubilized TmrAB (2 µM) were incubated with ATP (1 mM) traced with [α^32P]-ATP (Hartmann Analytic), MgCl2 (5 mM), CP^Fs (4 µM), or orthovanadate (1 mM) for 5 min at 45°C. Cold ATP (10 mM) was added, and unbound nucleotides were removed by rapid gel filtration (Bio-Spin columns P-30, Bio-Rad). ATP (10 mM) was added, and samples were spotted onto polyethyleneimine cellulose plates (Merck Millipore). Thin-layer chromatography was performed using 0.75 M KH2PO4 pH 3.4.

TmrAB [1] = experiment: Competition of CP^F binding by substrate peptides (fluorescence anisotropy); set-up: species or system Thermus thermophilus; conditions: C4^ATTO655 2 µM or R9LQK 200 µM, above their KD values
From the text: (§1) To elucidate the mechanistic basis for the inhibition of ATP hydrolysis and substrate transport, we investigated the effects of CPs on substrate binding. In the first approach, fluorescent CP^Fs were used as reporters in fluorescence polarization. […] In addition, we examined the impact of CP^Bs on ATP binding to TmrAB by scintillation proximity assays (SPA) (Figure 4C). […] Taken together, CPs are high-affinity allosteric inhibitors of TmrAB that leave ATP binding and substrate interaction largely unaffected, while impairing ATP hydrolysis and substrate translocation across the membrane.
(§2) Figure 4. […] (A) CP^Fs binding TmrAB is not affected by substrate peptide binding. […] For competition, C4^ATTO655 peptide (2 µM) or R9LQK peptide (200 µM) were added. (B) Binding of C4F peptide is not affected by CP^Bs. C4F peptides (50 nM) were mixed with TmrAB (4 µM), and fluorescence anisotropy was monitored as described in (A). For competition, C4^ATTO655 (10 µM) or CP^Bs (6 µM) were added. […] TmrAB (0.2 µM) were immobilized on SPA beads and incubated with ATP (3 μM, traced with ^3H-ATP) in the presence and absence of CP^Bs (1 µM each) for 30 min on ice. ATP binding was monitored by SPA. Background values were determined after releasing TmrAB complexes from the beads by adding imidazole (200 mM). The background signal in the absence of CP^Bs was set to 0 cpm. […] As this is an equilibrium experiment, this can be rationalized by the fact that CP13 stabilizes the ATP-bound OF conformer. Figure 4—source data 1. Source data for Figure 4.
(§3) To determine equilibrium binding constants, CP^Fs (50 nM) were incubated with increasing concentrations of TmrAB-containing or empty liposomes. To probe the conformational selectivity, CP^Fs (50 nM) were mixed with detergent-solubilized IF TmrAB or OF TmrA^EQB. Before, OF TmrA^EQB was nucleotide-trapped by incubation with ATP (1 mM) and MgCl2 (3 mM) in the absence of CP^Fs for 5 min at 45°C. […] For peptide competition studies, RRYC^fluoresceinKSTEL (C4F, 50 nM) were incubated with detergent-solubilized TmrAB (4 µM), CP^Bs (6 µM), or C4^ATTO655 (10 µM). […] Fluorescence anisotropy was analyzed at λex/em of 485/520 nm using a microplate reader (CLARIOstar, BMG LABTECH). Fluorescence anisotropy was calculated using:(1) r=I||−I⊥/I||+2⋅I⊥ with I||: parallel intensity and I⊥: perpendicular intensity. Binding of CP^Fs were fitted by a one-site binding model (Langmuir 1:1) using:(2) Y=Bmax∙[L]/KD+[L] with Y: binding, Bmax: maximal binding, KD: equilibrium dissociation constant, and [L]: ligand concentration. Data represent mean ± SD from three experiments.

TmrAB [2] = experiment: Competition of C4F peptide binding by CP^Bs (fluorescence anisotropy); set-up: species or system Thermus thermophilus
From the text: as §1, §2, §3

[3] = target: T1, TmrAB reconstituted in liposomes (Thermus thermophilus, UniProt Q72J04+Q72J05); experiment: Filter-based transport assay, CP^Fs tested as substrates; assay type: biochemical; conditions: TmrAB 0.4 µM in liposomes, C4F 3 µM or CP^F 1 µM, 5 min 45°C
T1 sequence (Q72J05 1-600): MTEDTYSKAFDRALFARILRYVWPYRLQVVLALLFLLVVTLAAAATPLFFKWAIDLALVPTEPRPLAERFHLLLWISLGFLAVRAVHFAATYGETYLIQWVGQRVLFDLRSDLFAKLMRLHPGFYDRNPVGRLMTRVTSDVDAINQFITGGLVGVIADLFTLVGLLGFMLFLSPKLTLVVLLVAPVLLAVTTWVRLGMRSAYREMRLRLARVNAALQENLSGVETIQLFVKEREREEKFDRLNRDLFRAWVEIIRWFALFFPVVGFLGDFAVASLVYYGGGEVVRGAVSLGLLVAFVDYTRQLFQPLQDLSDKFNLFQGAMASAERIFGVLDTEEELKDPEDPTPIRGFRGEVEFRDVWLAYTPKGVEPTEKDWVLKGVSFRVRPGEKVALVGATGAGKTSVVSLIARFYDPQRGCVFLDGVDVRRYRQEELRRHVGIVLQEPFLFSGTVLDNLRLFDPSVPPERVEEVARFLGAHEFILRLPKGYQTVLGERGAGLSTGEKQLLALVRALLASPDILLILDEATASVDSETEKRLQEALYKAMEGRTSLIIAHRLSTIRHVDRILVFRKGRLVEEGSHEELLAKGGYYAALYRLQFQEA
T1 sequence (Q72J04 1-578): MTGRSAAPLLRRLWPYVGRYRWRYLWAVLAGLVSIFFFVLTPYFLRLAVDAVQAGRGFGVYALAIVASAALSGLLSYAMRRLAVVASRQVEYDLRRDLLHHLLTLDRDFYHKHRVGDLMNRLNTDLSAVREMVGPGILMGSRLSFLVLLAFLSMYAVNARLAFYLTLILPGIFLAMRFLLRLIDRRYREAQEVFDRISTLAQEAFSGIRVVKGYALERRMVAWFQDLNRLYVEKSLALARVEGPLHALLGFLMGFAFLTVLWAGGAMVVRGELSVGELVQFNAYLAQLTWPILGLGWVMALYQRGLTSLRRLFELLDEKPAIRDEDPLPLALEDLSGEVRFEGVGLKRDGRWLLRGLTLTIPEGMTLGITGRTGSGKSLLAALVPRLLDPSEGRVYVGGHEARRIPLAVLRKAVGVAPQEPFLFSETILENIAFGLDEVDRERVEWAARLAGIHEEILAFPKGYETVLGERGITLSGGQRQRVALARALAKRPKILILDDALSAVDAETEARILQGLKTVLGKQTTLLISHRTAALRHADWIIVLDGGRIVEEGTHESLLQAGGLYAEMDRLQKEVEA
From the text: In order to investigate the functional impact of CPs, we examined the effect of the CPs on ATP hydrolysis and substrate transport of TmrAB (Figure 3A). We reconstituted TmrAB in liposomes and first assayed the ATPase activity. […] We next set out to investigate peptide transport by TmrAB using a filter-based transport assay. To investigate whether CPs are recognized as substrates by TmrAB, we added fluorescein-labeled CP^Fs and examined ATP-dependent translocation. In contrast to the linear substrate peptide C4F, none of the CP^Fs were transported by TmrAB (Figure 3C). Next, we examined ATP-dependent transport of C4F peptides in the presence and absence of the different CPs.
Figure 3. CP^Fs are potent inhibitors of ATP turnover and substrate transport. (A) Experimental scheme of ATP hydrolysis and peptide transport by TmrAB. (B) CP^Fs inhibit ATP hydrolysis. TmrAB in liposomes (100 nM) was incubated with ATP (2 mM, traced with [γ^32P]-ATP), and MgCl2 (5 mM) in the presence and absence of CP^Fs (1 µM) for 10 min at 45°C. Autohydrolysis was determined in the absence of TmrAB, and background turnover was conducted in the presence of EDTA (10 mM). Release of [γ^32P] was quantified by thin layer chromatography. (C) CP^Fs are not transported by TmrAB. TmrAB (0.4 µM) reconstituted in liposomes was incubated with C4F peptide (3 µM) or CP^Fs (1 µM) in the presence of ATP/ADP (3 mM) and MgCl2 (5 mM) for 5 min at 45°C. Since CP^Fs were dissolved in maximal 0.5% (v/v) of DMSO, C4F plus 0.5% DMSO served as control. Proteoliposomes were washed on filter plates, and transported peptides were quantified at λex/em = 485/520 nm. (D) Inhibition of substrate translocation. TmrAB in liposomes (0.4 µM) were incubated with C4F peptide (3 µM), ATP/ADP (3 mM), and MgCl2 (5 mM) in the presence and absence of CP^Fs (1 µM) for 15 min at 45°C. Transported peptides were quantified as described in (C). In (B–C), mean values ± SD (n = 3) are shown. Figure 3—source data 1. Source data for Figure 3.
TmrAB in liposomes (0.4 µM) were incubated with ATP/ADP (3 mM), MgCl2 (5 mM), C4F peptide (3 µM), and CP^Fs (1 µM) for 15 min at 45°C. […] Proteoliposomes were solubilized by adding SDS (1% [v/v]) in transport buffer for 10 min at 20°C. Transported peptides were quantified at λex/em = 485/520 nm using a microplate reader (CLARIOstar, BMG LABTECH).

[O]=[V]([O-])([O-])[O-] [Vanadate, orthovanadate, reference compound]
Occluded nucleotides, ADP (wild-type TmrAB): 56.67% | Occluded nucleotides, ATP (wild-type TmrAB): 62.96%

RRYC^ATTO655KSTEL [C4^ATTO655, reference compound]
Effect of transported peptides on CP^F binding to TmrAB (TmrAB [1]): did not affect binding of CP^Fs to TmrAB | Bound C4F peptide, fluorescence anisotropy (TmrAB [2]; C4F 50 nM + TmrAB 4 µM + competitor (CP^B 6 µM or C4^ATTO655 10 µM)): 0.045 | Competition of C4F peptide binding (TmrAB [2]; CP^B 6 µM or C4^ATTO655 10 µM as competitor): interfered with C4F peptide binding

RRYC^fluoresceinKSTEL [C4F, reference compound]
Transported peptide ([3]; ADP 3 mM (background)): 0.00 µmol·g/min | Transported peptide ([3]; ATP 3 mM): 1.64 µmol·g/min | Bound C4F peptide, fluorescence anisotropy (TmrAB [2]; listed as -: baseline of C4F 50 nM): 0.023 | Bound C4F peptide, fluorescence anisotropy (TmrAB [2]; listed as C4F: C4F 50 nM + TmrAB 4 µM, no competitor): 0.129

RRYQKSTEL [R9LQK, reference compound]
Effect of transported peptides on CP^F binding to TmrAB (TmrAB [1]): did not affect binding of CP^Fs to TmrAB
